From US20090326031A1, “ANTIVIRAL USE OF CATIONIC SURFACTANT” (priority 2006, published 2009)

How the values were obtained:
[1] = test system: Clostridium perfringens ATCC 77454; assay type: cell-based; conditions: Gram + Bacteria
[2] = test system: Alcaligenes faecalis ATCC 8750; assay: minimum inhibitory concentration; assay type: cell-based; conditions: Gram − Bacteria
Excerpt: (§1) This compound is remarkable for its inhibitory action over the proliferation of different microorganisms, such as bacteria, fungi and yeasts.

[3] = test system: Arthrobacter oxydans ATCC 8010; assay: minimum inhibitory concentration; assay type: cell-based; conditions: Gram + Bacteria
Excerpt: as §1

[4] = test system: Aspergillus niger ATCC14604; assay: minimum inhibitory concentration; assay type: cell-based; conditions: Fungi
Excerpt: as §1

[5] = test system: Aureobasidium pullulans ATCC 9348; assay: minimum inhibitory concentration; assay type: cell-based; conditions: Fungi
Excerpt: as §1

[6] = test system: Bacillus cereus var mycoide ATCC 11778; assay: minimum inhibitory concentration; assay type: cell-based; conditions: Gram + Bacteria
Excerpt: as §1

[7] = test system: Bacillus subtilis ATCC 6633; assay: minimum inhibitory concentration; assay type: cell-based; conditions: Gram + Bacteria
Excerpt: as §1

[8] = test system: Bordetella bronchiseptica ATCC 4617; assay: minimum inhibitory concentration; assay type: cell-based; conditions: Gram − Bacteria
Excerpt: as §1

[9] = test system: Candida albicans ATCC 10231; assay: minimum inhibitory concentration; assay type: cell-based; conditions: Yeast
Excerpt: as §1

[10] = test system: Chaetonium globosum ATCC 6205; assay: minimum inhibitory concentration; assay type: cell-based; conditions: Fungi
Excerpt: as §1

[11] = test system: Citrobacter freundii ATCC 22636; assay: minimum inhibitory concentration; assay type: cell-based; conditions: Gram − Bacteria
Excerpt: as §1

[12] = test system: Enterobacter aerogenes CECT 689; assay: minimum inhibitory concentration; assay type: cell-based; conditions: Gram − Bacteria
Excerpt: as §1

Escherichia coli 0157H7 = assay: minimum inhibitory concentration; assay type: cell-based; conditions: Gram − Bacteria
Excerpt: as §1

[13] = test system: Escherichia coli ATCC 8739; assay: minimum inhibitory concentration; assay type: cell-based; conditions: Gram − Bacteria
Excerpt: as §1

[14] = test system: Gliocadium virens ATCC 4645; assay: minimum inhibitory concentration; assay type: cell-based; conditions: Fungi
Excerpt: as §1

[15] = test system: Klebsiella pneumoniae var pneumoniae CECT 178; assay: minimum inhibitory concentration; assay type: cell-based; conditions: Gram − Bacteria
Excerpt: as §1

[16] = test system: Lactobacillus delbrueckii ssp lactis CECT 372; assay: minimum inhibitory concentration; assay type: cell-based; conditions: Gram + Bacteria
Excerpt: as §1

[17] = test system: Leuconostoc mesenteroides CETC 912; assay: minimum inhibitory concentration; assay type: cell-based; conditions: Gram + Bacteria
Excerpt: as §1

[18] = test system: Listeria monocytogenes ATCC 7644; assay: minimum inhibitory concentration; assay type: cell-based; conditions: Gram + Bacteria
Excerpt: as §1

[19] = test system: Micrococcus luteus ATCC 9631; assay: minimum inhibitory concentration; assay type: cell-based; conditions: Gram + Bacteria
Excerpt: as §1

[20] = test system: Mycobacterium phlei ATCC 41423; assay: minimum inhibitory concentration; assay type: cell-based; conditions: Gram + Bacteria
Excerpt: as §1

[21] = test system: Penicillium chrysogenum CECT 2802; assay: minimum inhibitory concentration; assay type: cell-based; conditions: Fungi
Excerpt: as §1

[22] = test system: Penicillium funiculosum CECT 2914; assay: minimum inhibitory concentration; assay type: cell-based; conditions: Fungi
Excerpt: as §1

[23] = test system: Proteus mirabilis CECT 170; assay: minimum inhibitory concentration; assay type: cell-based; conditions: Gram − Bacteria
Excerpt: as §1

[24] = test system: Pseudomonas aeruginosa ATCC 9027; assay: minimum inhibitory concentration; assay type: cell-based; conditions: Gram − Bacteria
Excerpt: as §1

[25] = test system: Rhodotorula rubra CECT 1158; assay: minimum inhibitory concentration; assay type: cell-based; conditions: Yeast
Excerpt: as §1

[26] = test system: Saccharomyces cerevisiae ATCC 9763; assay: minimum inhibitory concentration; assay type: cell-based; conditions: Yeast
Excerpt: as §1

[27] = test system: Salmonella typhimurium ATCC16028; assay: minimum inhibitory concentration; assay type: cell-based; conditions: Gram − Bacteria
Excerpt: as §1

[28] = test system: Serratia marcenses CECT 274; assay: minimum inhibitory concentration; assay type: cell-based; conditions: Gram − Bacteria
Excerpt: as §1

[29] = test system: Staphylococcus aureus ATCC 6538; assay: minimum inhibitory concentration; assay type: cell-based; conditions: Gram + Bacteria
Excerpt: as §1

[30] = test system: parainfluenza bovine type 3 strain SF-4 (ATCC VR-281); assay: activity of LAE against bovine parainfluenzae 3 virus (virus suspension, TCID50); assay type: cell-based; conditions: LAE 200 ppm
Protocol: (§2) In the following experiments the reduction factor has been calculated.
(§3) This reduction factor is calculated according to the following formula
(§4) R′ presents the reduction factor, v′ represents the volume of the sample of the test compound, a′ is the virus concentration in the added sample (^10log value), v″ is the volume of the final sample, a″ is the virus concentration after treatment (^10log value).
(§5) In the following experiments the clearance factor has been calculated. The clearance factor is calculated according to the following formula: […]
(§6) CL is the elimination factor (clearance factor), q′ is the initial concentration of virus (^10log value), q″ is the final concentration of virus (^10log value).
Eagle minimum essential medium (EMEM) was obtained from Earle (ICN Flow, Rf. 11-100-24), was supplemented with
10% of fetal bovine serum (Biowhittaker, Ref. D14-810F), […] of glutamine (Biowhittaker, Ref. 17-605E), non-essential amino acids (Biowhittaker, Ref. 13-114E), 100 units of penicillin, 100 μg of streptomycin/ml and 1 mM of sodium pyruvate. LAE (CAS 60372-77-2) Lot No. 10234 with a LAE Content of 88.7%.
The investigated strain of the parainfluenza bovine type 3 was SF-4 (ATCC VR-281).
(§7) LAE was investigated at a concentration of 200 ppm.
All experiments were performed at room temperature.
8 ml of deionized water was mixed with 1 ml of the virus suspension. 1 ml of LAE solution (containing 2000 ppm of LAE) was added, leading to a final LAE concentration of 200 ppm.
After 5 and 60 minutes samples for determination were taken. The design of the experiment allowed for conclusions of the effectivity of LAE after contact times of 5 and 60 minutes.
The number of virus particles in the experiment were determined by the quantitative assay TCID50 (infectious dose of cultured tissue).

Herpes virus type 1 = assay: activity of LAE against Herpes virus type 1; assay type: cell-based, Herpes simplex virus; conditions: LAE 200 ppm
Protocol: as §2, §3, §4, §5, §6
The virus which was investigated was the type Simplex virus of the subfamily Alphaherpesvirinae in the family Herpesviridae.
The conditions for the determination are similarly chosen according to the ones of example 1.
as §7

Vaccinia virus = assay type: cell-based; conditions: LAE 200 ppm
metabolism in rats = assay type: in vivo; conditions: eventually excreted as carbon dioxide and urea
toxicological studies = assay type: in vivo; conditions: animals and humans

For CCCCCCCCCCCC(=O)N[C@@H](CCCN=C(N)N)C(=O)OCC.Cl [LAE, ethyl ester of the lauramide of the arginine monohydrochloride], which M.I.C. [1] is on record?
Its M.I.C. is 16 ppm.

And the M.I.C. [2]?
Its M.I.C. is 64 ppm.

What about the M.I.C. [3] of the same compound?
Its M.I.C. is 64 ppm.

And the M.I.C. [4]?
The M.I.C. was 32 ppm.

What about the M.I.C. [5] of the same compound?
Its M.I.C. is 16 ppm.

What about the M.I.C. [6] of the same compound?
The M.I.C. was 32 ppm.

And the M.I.C. [7]?
The M.I.C. was 16 ppm.

What about the M.I.C. [8] of the same compound?
Its M.I.C. is 128 ppm.

And the M.I.C. [9]?
Its M.I.C. is 16 ppm.

And the M.I.C. [10]?
The M.I.C. was 16 ppm.

And the M.I.C. [11]?
Its M.I.C. is 64 ppm.

And the M.I.C. [12]?
The M.I.C. was 32 ppm.

And the M.I.C. (Escherichia coli 0157H7)?
The M.I.C. was 20 ppm.

And the M.I.C. [13]?
The M.I.C. was 32 ppm.

What about the M.I.C. [14] of the same compound?
Its M.I.C. is 32 ppm.

And the M.I.C. [15]?
Its M.I.C. is 32 ppm.

What about the M.I.C. [16] of the same compound?
Its M.I.C. is 16 ppm.

What about the M.I.C. [17] of the same compound?
The M.I.C. was 32 ppm.

And the M.I.C. [18]?
Its M.I.C. is 10 ppm.

What about the M.I.C. [19] of the same compound?
The M.I.C. was 128 ppm.

What about the M.I.C. [20] of the same compound?
Its M.I.C. is 2 ppm.

And the M.I.C. [21]?
Its M.I.C. is 128 ppm.

And the M.I.C. [22]?
Its M.I.C. is 16 ppm.

What about the M.I.C. [23] of the same compound?
Its M.I.C. is 32 ppm.

What about the M.I.C. [24] of the same compound?
Its M.I.C. is 64 ppm.

What about the M.I.C. [25] of the same compound?
Its M.I.C. is 16 ppm.

And the M.I.C. [26]?
The M.I.C. was 32 ppm.

What about the M.I.C. [27] of the same compound?
Its M.I.C. is 32 ppm.

What about the M.I.C. [28] of the same compound?
Its M.I.C. is 32 ppm.

What about the M.I.C. [29] of the same compound?
Its M.I.C. is 32 ppm.

And the Clearance factor ([30]; 60 min contact, 10log values)?
Its Clearance factor is “≧6.29 ± 0.32”.

What about the Reduction factor ([30]; 60 min contact, 10log values) of the same compound?
Its Reduction factor is “≧6.46 ± 0.32”.

What about the “remaining virus after treatment for 60 minutes” value ([30]; 60 minutes) of the same compound?
The value was “no remaining virus organisms were detected”.

What about the “Virus concentration 60 min after addition of LAE” value (from here on “Virus concentration 60 min”) ([30]; room temperature, 10log value, TCID50, before addition 8.09 ± 0.33) of the same compound?
Its value is “≦1.63”.

And the “Virus concentration 60 min” value (Herpes virus type 1; 10log value, before addition 7.94 ± 0.37)?
Its value is “≦1.70”.

What about the Clearance factor (Herpes virus type 1; 60 min contact, 10log values) of the same compound?
The Clearance factor was “≧6.24 ± 0.37”.

And the Reduction factor (Herpes virus type 1; 60 min contact, 10log values)?
Its Reduction factor is “≧6.18 ± 0.36”.

And the “remaining virus after treatment for 60 minutes” value (Herpes virus type 1; 60 minutes)?
Its value is “no remaining virus organisms were detected”.

What about the “Virus concentration 60 min” value (Vaccinia virus; 10log value, before addition 5.94 ± 0.34) of the same compound?
Its value is 2.40.

What about the “living virus after treatment for 5 minutes” value (Vaccinia virus; 5 minutes) of the same compound?
Its value is “great reduction of the number of living microorganisms”.

And the Clearance factor (Vaccinia virus; 60 min contact, 10log values)?
Its Clearance factor is 3.54 ± 0.34.

What about the Reduction factor (Vaccinia virus; 60 min contact, 10log values) of the same compound?
The Reduction factor was 3.92 ± 0.36.

What about the “living virus after treatment for 60 minutes” value (Vaccinia virus; 60 minutes) of the same compound?
The value was “substantial decrease of the number of living Vaccinia virus organisms”.

And the absorption and metabolism (metabolism in rats)?
Its absorption and metabolism is “fast absorption and metabolisation into naturally-occurring amino acids and the fatty acid lauric acid”.

What about the toxicity (toxicological studies) of the same compound?
The toxicity was “completely harmless to animals and humans”.
